Source: ChEMBL document CHEMBL4334512, “Rationally Designed, Conformationally Constrained Inverse Agonists of RORγt-Identification of a Potent, Selective Series with Biologic-Like in Vivo Efficacy” (J Med Chem, 2019)
pEC50, pIC50: −log10 of the molar value.

Experiments:
[1] = target: T1, Nuclear receptor subfamily 1 group I member 2 (Homo sapiens, UniProt O75469); assay: Activity at PXR (unknown origin)
T1 sequence (O75469 whole entry): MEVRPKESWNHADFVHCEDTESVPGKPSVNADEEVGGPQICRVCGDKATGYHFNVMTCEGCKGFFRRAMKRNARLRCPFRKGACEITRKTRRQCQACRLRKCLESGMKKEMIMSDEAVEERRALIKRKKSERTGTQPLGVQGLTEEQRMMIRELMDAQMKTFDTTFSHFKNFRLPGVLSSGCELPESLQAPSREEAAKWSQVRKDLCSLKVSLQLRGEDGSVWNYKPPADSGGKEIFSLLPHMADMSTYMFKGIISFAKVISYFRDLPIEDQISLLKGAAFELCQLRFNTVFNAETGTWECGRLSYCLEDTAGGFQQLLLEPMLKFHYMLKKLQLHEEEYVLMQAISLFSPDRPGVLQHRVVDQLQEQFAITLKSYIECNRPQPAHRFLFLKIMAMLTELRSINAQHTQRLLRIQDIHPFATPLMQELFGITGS

[2] = Oral bioavailability in dog at 1 mg/kg; assay type: ADME, organism-based, Canis lupus familiaris; settings: in vivo
[3] = Cmax in rat at 4 mg/kg, po; assay type: ADME, organism-based; design: dose 4 mg/kg, route oral; settings: in vivo
[4] = Unbound fraction in mouse serum; assay type: ADME, cell-free
[5] = Permeability across apical to basolateral side in human Caco2 cells; assay type: ADME, cell-based; settings: Caco-2, read-out: permeability
[6] = Half life in mouse at 2 mg/kg, iv; assay type: ADME, organism-based; settings: in vivo
[7] = Cmax in dog at 1 mg/kg, po; assay type: ADME, organism-based, Canis lupus familiaris; design: dose 1 mg/kg, route oral; settings: in vivo
[8] = Clearance in dog at 1 mg/kg, iv; assay type: ADME, organism-based, Canis lupus familiaris; settings: in vivo
[9] = target: T2, Oxysterols receptor LXR-beta (Homo sapiens, UniProt P55055); assay: Activity at LXRbeta (unknown origin)
T2 sequence (P55055 whole entry): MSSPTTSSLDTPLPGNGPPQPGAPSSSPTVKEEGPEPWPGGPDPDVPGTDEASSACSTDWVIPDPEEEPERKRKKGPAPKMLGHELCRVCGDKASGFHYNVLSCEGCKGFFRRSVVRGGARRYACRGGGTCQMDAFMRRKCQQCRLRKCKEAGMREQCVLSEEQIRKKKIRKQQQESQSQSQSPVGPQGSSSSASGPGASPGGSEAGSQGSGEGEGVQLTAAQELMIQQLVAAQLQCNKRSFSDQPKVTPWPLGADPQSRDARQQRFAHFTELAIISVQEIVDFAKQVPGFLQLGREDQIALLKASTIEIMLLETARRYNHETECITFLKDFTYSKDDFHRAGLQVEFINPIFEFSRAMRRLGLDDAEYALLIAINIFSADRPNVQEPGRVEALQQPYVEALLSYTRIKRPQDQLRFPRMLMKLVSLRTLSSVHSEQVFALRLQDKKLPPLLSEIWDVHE

[10] = target: T3, Nuclear receptor ROR-alpha (Homo sapiens, UniProt P35398); assay: Activity at RORalpha (unknown origin)
T3 sequence (P35398 whole entry): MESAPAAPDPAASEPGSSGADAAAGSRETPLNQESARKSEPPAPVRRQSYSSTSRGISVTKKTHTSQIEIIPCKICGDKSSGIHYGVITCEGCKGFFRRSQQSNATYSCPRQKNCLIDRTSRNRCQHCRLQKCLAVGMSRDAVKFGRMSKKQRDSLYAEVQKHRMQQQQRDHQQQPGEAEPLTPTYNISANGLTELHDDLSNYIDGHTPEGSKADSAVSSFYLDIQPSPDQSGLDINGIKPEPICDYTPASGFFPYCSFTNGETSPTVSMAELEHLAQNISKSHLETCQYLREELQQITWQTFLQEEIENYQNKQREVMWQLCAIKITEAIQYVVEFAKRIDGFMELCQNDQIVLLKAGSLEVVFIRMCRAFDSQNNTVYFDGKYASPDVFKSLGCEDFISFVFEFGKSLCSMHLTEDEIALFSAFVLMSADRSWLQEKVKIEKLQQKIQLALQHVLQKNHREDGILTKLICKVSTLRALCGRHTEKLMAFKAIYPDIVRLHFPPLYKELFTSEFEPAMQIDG

Cytochrome P450 2D6 = Cytochrome P450 2D6 (Homo sapiens, UniProt P10635); assay: Inhibition of recombinant CYP2D6 (unknown origin); assay type: ADME
Chain of Cytochrome P450 2D6 (P10635 whole entry): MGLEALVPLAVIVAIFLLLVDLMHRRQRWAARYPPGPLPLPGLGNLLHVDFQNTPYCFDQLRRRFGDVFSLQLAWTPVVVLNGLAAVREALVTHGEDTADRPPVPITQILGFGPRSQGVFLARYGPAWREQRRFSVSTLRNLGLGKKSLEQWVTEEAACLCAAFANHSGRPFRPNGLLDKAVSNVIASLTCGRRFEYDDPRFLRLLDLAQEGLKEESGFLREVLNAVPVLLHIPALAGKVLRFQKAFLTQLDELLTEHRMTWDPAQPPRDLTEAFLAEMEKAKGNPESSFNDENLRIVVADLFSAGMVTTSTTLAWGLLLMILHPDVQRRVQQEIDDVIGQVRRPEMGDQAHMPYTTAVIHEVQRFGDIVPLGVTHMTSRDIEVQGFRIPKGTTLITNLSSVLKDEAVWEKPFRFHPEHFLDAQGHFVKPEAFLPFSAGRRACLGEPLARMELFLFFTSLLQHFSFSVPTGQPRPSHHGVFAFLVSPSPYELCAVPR

[11] = target: T4, Nuclear receptor ROR-gamma (Mus musculus, UniProt P51450); assay: Inverse agonist activity at RORgammat in mouse cells by mTh17 assay; assay type: cell-based
T4 sequence (P51450 whole entry): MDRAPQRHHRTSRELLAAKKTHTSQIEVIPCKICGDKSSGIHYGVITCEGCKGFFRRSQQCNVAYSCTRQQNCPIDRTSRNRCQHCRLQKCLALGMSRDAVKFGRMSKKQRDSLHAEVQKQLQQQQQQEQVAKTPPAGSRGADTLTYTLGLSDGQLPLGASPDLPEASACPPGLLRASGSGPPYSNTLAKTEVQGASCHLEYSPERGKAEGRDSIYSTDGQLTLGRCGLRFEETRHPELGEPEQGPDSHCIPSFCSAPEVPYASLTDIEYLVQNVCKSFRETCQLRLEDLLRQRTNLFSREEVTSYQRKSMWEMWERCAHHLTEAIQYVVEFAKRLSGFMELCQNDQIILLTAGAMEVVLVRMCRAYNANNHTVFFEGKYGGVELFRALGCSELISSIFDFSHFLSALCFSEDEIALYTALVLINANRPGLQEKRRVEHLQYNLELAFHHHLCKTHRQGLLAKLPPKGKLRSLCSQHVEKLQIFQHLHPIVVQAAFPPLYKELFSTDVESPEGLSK

[12] = Unbound fraction in rat serum; assay type: ADME, cell-free
[13] = Half life in mouse liver microsomes; assay type: ADME, Microsome
Mus musculus [14] = assay: Suppression of IL-17F RNA expression in skin region of mouse model of IL-23 induced acanthosis model of psoriasis at 3 mg/kg, po BID for 10 days measured every other day relative to control; assay type: functional; settings: 240 h
[15] = target: T3, Nuclear receptor ROR-alpha; assay: Agonist activity at RORalpha (unknown origin) by Gal4-Luc reporter gene assay
Mus musculus [16] = assay: Suppression of IL-17F RNA expression in skin region of mouse model of IL-23 induced acanthosis model of psoriasis at 30 mg/kg, po BID for 10 days measured every other day relative to control; assay type: functional; settings: 240 h
Cytochrome P450 2C19 = Cytochrome P450 2C19 (Homo sapiens, UniProt P33261); assay: Inhibition of recombinant CYP2C19 (unknown origin); assay type: ADME
Chain of Cytochrome P450 2C19 (P33261 whole entry, the tested form may be a part): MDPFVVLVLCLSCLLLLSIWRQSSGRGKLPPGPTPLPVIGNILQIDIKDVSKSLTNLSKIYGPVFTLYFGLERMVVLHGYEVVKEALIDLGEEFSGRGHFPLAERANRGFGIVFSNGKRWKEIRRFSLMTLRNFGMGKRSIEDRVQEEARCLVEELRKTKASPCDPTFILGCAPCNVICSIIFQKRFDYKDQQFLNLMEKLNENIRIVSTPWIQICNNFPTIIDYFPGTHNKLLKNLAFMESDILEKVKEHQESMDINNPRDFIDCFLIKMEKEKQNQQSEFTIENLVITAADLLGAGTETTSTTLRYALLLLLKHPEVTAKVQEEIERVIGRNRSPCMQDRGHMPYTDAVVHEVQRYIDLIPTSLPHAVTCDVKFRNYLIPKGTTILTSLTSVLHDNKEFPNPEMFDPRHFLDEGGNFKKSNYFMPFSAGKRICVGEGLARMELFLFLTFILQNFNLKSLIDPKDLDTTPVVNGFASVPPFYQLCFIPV

[17] = target: T1, Nuclear receptor subfamily 1 group I member 2; assay: Agonist activity at PXR (unknown origin) by Gal4-Luc reporter gene assay)
[18] = Volume of distribution at steady state in mouse at 2 mg/kg, iv; assay type: ADME, organism-based; settings: in vivo, read-out: Vdss
Mus musculus [19] = assay: Suppression of IL-22 RNA expression in skin region of mouse model of IL-23 induced acanthosis model of psoriasis at 30 mg/kg, po BID for 10 days measured every other day relative to control; assay type: functional; settings: 240 h
Mus musculus [20] = assay: Suppression of IL-17F RNA expression in skin region of mouse model of IL-23 induced acanthosis model of psoriasis at 10 mg/kg, po BID for 10 days measured every other day relative to control; assay type: functional; settings: 240 h
[21] = Oral bioavailability in mouse at 4 mg/kg; assay type: ADME, organism-based; settings: in vivo
[22] = Cmax in mouse at 4 mg/kg, po; assay type: ADME, organism-based; design: dose 4 mg/kg, route oral; settings: in vivo

O=C(N1CC[C@@]2(S(=O)(=O)c3ccc(F)cc3)c3ccc(C(F)(C(F)(F)F)C(F)(F)F)cc3CC[C@@H]12)C1(O)CCS(=O)(=O)CC1
pIC50 [1]: < 4.40 | bioavailability [2]: 100% | Cmax [3]: 1100 nM | fraction unbound [4]: 0.007 | Papp A→B [5]: 13 ×10⁻⁶ cm/s | half-life [6]: 15 h | Cmax [7]: 700 nM | clearance [8]: 0.35 mL/min/kg | pIC50 [9]: < 5.00 | pIC50 [10]: < 5.00 | pIC50 (Cytochrome P450 2D6): < 4.70 | pEC50 [11]: 7.89 | fraction unbound [12]: 0.011 | half-life [13]: > 2 h | inhibition in vivo at 3 mg/kg (Mus musculus [14]): 41% | pEC50 [15]: < 5.00 | inhibition in vivo at 30 mg/kg (Mus musculus [16]): 85% | pIC50 (Cytochrome P450 2C19): < 4.70 | pEC50 [17]: < 4.30 | Vd [18]: 2.7 L/kg | inhibition in vivo at 30 mg/kg (Mus musculus [19]): 97% | inhibition in vivo at 10 mg/kg (Mus musculus [20]): 69% | bioavailability [21]: 100% | Cmax [22]: 2200 nM
